The source of these data is patent US11168079B2, “Alkene compounds as farnesoid x receptor modulators” (BRISTOL-MYERS SQUIBB COMPANY, priority 2017, dated 2021).

pEC50: −log10 of the molar value.

The EC50 is the concentration needed to bring the measured effect to its halfway point. A higher EC50 goes with a need for much substance. One may read the pEC50 as the EC50 on a negative log10 scale, so that one unit is a factor of ten. Read a low pEC50 as a large EC50.

The first test addresses T1, human FXR (Homo sapiens, UniProt Q96RI1).
T1 sequence (Q96RI1 262-486 limits assumed): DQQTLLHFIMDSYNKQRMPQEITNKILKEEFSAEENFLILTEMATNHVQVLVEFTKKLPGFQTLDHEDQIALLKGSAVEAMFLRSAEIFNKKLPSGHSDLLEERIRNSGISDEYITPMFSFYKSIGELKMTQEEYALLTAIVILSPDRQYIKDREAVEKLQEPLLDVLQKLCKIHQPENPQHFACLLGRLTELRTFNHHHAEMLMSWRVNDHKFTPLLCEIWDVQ
In words: transient human FXR/Gal4-luciferase reporter assay (HLE GAL-FXR). As to conditions: FXR EC50 (nM), Gal4-hFXR fusion reporter, HEK293 cells; Table 1.
Procedure: A Gal4-hFXR fusion construct reporter system was used as the primary assay to characterize compound activity. A construct including 5 copies of the Gal4 promoter response element upstream of a firefly luciferase reporter cDNA was stably expressed in HEK293 cells. This reporter cell line was maintained in Dulbecco's Modified Eagle's medium (DMEM; Gibco) supplemented with 1% penicillin-streptomycin (P/S) solution, 500 μg/mL Zeocin and 10% charcoal/dextran-treated fetal bovine serum (cs-FBS) at 37° C. in a humidified 5% CO2 atmosphere. Another plasmid was constructed in which the human cytomegalovirus promoter in the pcDNA3.1 vector directs the expression of the cDNA encoding a fusion protein comprised of the DNA binding domain from the Gal4 transcription factor fused to the ligand binding domain from human FXR.
For compound testing, 100 nL of the compounds (serial dilutions in DMSO) are dispensed with an Echo acoustic dispenser (Labcyte) into the wells of a Corning/Costar clear bottom 384-well white plate. The transfected cells are harvested, counted, and diluted such that 10-25,000 cells in 25 μL are plated into each well of the 384-well compound assay plate. The compound-treated cells are incubated overnight at 37° C. in a humidified 5% CO2 atmosphere. The next morning 25 μL of Steady-Glo (Promega) are added to each well of the plate, the mixture is incubated for 15 min. with shaking, and luminescence is measured on an Envision (Perkin Elmer) plate reader.
`Cn1cc(C(=O)O)c(=O)c2ccc(N3CC(/C=C/c4c(-c5ccccc5C(F)(F)F)noc4C4CC4)C3)cc21` [Example 181] displayed an EC50 of 400 nM.
Regarding `O=C(O)c1cc(OCC(F)F)c2cc(N3CC(/C=C/c4c(-c5ccccc5C(F)(F)F)noc4C4CC4)C3)ccc2n1` [Example 182], the midpoint of the response, the EC50, lay at 72 nM.
In the case of `O=C(O)c1cc(O[C@H]2C[C@@H](F)C2)c2cc(N3CC4C(/C=C/c5c(-c6ccccc6C(F)(F)F)noc5C5CC5)C4C3)ccc2n1` (stereo partly shown) [Example 185], the EC50 worked out at 11 nM.
Same read-out and setting: as for `COCc1cc(C(=O)O)nc2ccc(N3CC(/C=C/c4c(-c5ccccc5C(F)(F)F)noc4C4CC4)C3)cc12` [Example 186], the figure is 228 nM; as for `O=C(O)c1cc(O[C@H]2C[C@@H](F)C2)c2cc(N3CC(/C=C/c4c(-c5ccccc5C(F)(F)F)noc4C4CC4)C3)ccc2n1` [Example 187], 348 nM; as for `O=C(O)c1cc(O[C@@H]2CCOC2)c2cc(N3CC(/C=C/c4c(-c5cccnc5C(F)(F)F)noc4C4CC4)C3)ccc2n1` [Example 188], 1690 nM.
Same read-out and setting: as for `O=C(O)c1cc(O[C@H]2CCOC2)c2cc(N3CC(/C=C/c4c(-c5cccnc5C(F)(F)F)noc4C4CC4)C3)ccc2n1` [Example 189], the figure is 650 nM; as for `Cn1cc(C(=O)O)c(=O)c2ccc(N3CC4C(/C=C/c5c(-c6ccccc6C(F)(F)F)noc5C5CC5)C4C3)cc21` (stereo not shown) [Example 190], 376 nM.
Same read-out and setting: to `CCn1cc(C(=O)O)c(=O)c2ccc(N3CC4C(/C=C/c5c(-c6ccccc6C(F)(F)F)noc5C5CC5)C4C3)cc21` (stereo not shown) [Example 192] belongs 132 nM; to `O=C(O)c1cc(O[C@H]2CCOC2)c2cc(N3CC(/C=C/c4c(-c5ccccc5C(F)(F)F)noc4C4CC4)C3)ccc2n1` [Example 193], 343 nM.
In turn, `O=C(O)c1cc(O[C@H]2C[C@H](F)C2)c2cc(N3CC(/C=C/c4c(-c5ccccc5C(F)(F)F)noc4C4CC4)C3)ccc2n1` [Example 194] displayed an EC50 of 159 nM.
Same read-out and setting: as for `O=C(O)c1cc(O[C@H]2C[C@@H](F)C2)c2cc(N3CC(/C=C/c4c(-c5cccnc5C(F)(F)F)noc4C4CC4)C3)ccc2n1` [Example 195], the figure is 286 nM; as for `O=C(O)c1cc(OC2CC2)c2cc(N3CC(/C=C/c4c(-c5ccccc5C(F)(F)F)noc4C4CC4)C3)ccc2n1` [Example 196], 53 nM; as for `COc1cc(C(=O)O)nc2c(F)cc(N3CC4C(/C=C/c5c(-c6c(Cl)cncc6Cl)noc5C5CC5)C4C3)cc12` (stereo not shown) [Example 198], 71 nM.
On the same count and under the same terms, as for `O=C(O)c1cc(O[C@H]2C[C@H](F)C2)c2cc(N3CC4C(/C=C/c5c(-c6ccccc6C(F)(F)F)noc5C5CC5)C4C3)ccc2n1` (stereo partly shown) [Example 199], the figure is 63 nM; as for `O=C(O)c1cc(OCC(F)F)c2cc(N3CC4C(/C=C/c5c(-c6c(Cl)cncc6Cl)noc5C5CC5)C4C3)ccc2n1` (stereo not shown) [Example 200], 21 nM.
The same measure, in the same setting: to `Cn1cc(C(=O)O)c2ccc(N3CC(/C=C/c4c(-c5ccccc5C(F)(F)F)noc4C4CC4)C3)cc21` [Example 201] belongs 178 nM.
`[2H]C([2H])([2H])Oc1cc(C(=O)O)nc2ccc(N3CC4C(/C=C/c5c(-c6c(Cl)cncc6Cl)noc5C5CC5)C4C3)cc12` (stereo not shown) [Example 202] had a half-maximal effective concentration (EC50) of 30 nM.
Same read-out and setting: to `O=C(O)c1cc(O[C@H]2C[C@@H](F)C2)c2cc(N3CC4C(/C=C/c5c(-c6c(Cl)cncc6Cl)noc5C5CC5)C4C3)ccc2n1` (stereo partly shown) [Example 203] belongs 16 nM; to `O=C(O)c1cc(O[C@H]2C[C@H](F)C2)c2cc(N3CC4C(/C=C/c5c(-c6c(Cl)cncc6Cl)noc5C5CC5)C4C3)ccc2n1` (stereo partly shown) [Example 204], 19 nM; to `O=C(O)c1ccc(-c2ccc(N3CC(/C=C/c4c(-c5ccccc5C(F)(F)F)noc4C4CC4)C3)cc2)cc1` [Example 205], 189 nM.
Still for that read-out and setting: to `COc1cc(C(=O)O)nc2ccc(N3CC(/C=C/c4c(-c5ccccc5OC(F)(F)F)noc4C4CC4)C3)cc12` [Example 206] belongs 216 nM; to `O=C(O)c1cccc(-c2ccc(N3CC(/C=C/c4c(-c5ccccc5C(F)(F)F)noc4C4CC4)C3)cc2)c1` [Example 207], 64 nM; to `Cn1cc(C(=O)O)c2ncc(N3CC4C(/C=C/c5c(-c6c(Cl)cncc6Cl)noc5C5CC5)C4C3)cc21` (stereo not shown) [Example 209], 472 nM.
As for `Cn1cc(C(=O)O)c2ncc(N3CC4C(/C=C/c5c(-c6ccccc6C(F)(F)F)noc5C5CC5)C4C3)cc21` (stereo not shown) [Example 211], the EC50 stood at 154 nM.
Still for that read-out and setting: to `O=C(O)c1c2ccc(N3CC4C(/C=C/c5c(-c6c(Cl)cccc6Cl)noc5C5CC5)C4C3)cc2nn1CC1CC1` (stereo not shown) [Example 212] belongs 21 nM.
The same measure, in the same setting: as for `COc1cc(C(=O)O)nc2c(F)cc(N3CC(/C=C/c4c(-c5ccccc5C(F)(F)F)noc4C4CC4)C3)cc12` [Example 215], the figure is 199 nM.
Same read-out and setting: to `O=C(O)c1cc(OC2CC2)c2cc(N3CC(/C=C/c4c(-c5ccccc5OC(F)(F)F)noc4C(F)(F)F)C3)ccc2n1` [Example 217] belongs 1400 nM.

The same test, now with this note: HLE GAL-FXR EC50, Gal4-hFXR fusion reporter, HEK293 cells.
In turn, `NC(=O)c1cc(OC2CC2)c2cc(N3CC4C(/C=C/c5c(-c6ccccc6C(F)(F)F)noc5C5CC5)C4C3)ccc2n1` (stereo not shown) [Example 183, (E)-4-Cyclopropoxy-6-(6-(2-(5-cyclopropyl-3-(2-(trifluoromethyl)phenyl)-isoxazol-4-yl)vinyl)-3-azabicyclo[3.1.0]hexan-3-yl)quinoline-2-carboxamide] showed a pEC50 of 6.04.
Still for that read-out and setting: as for `O=C(O)c1cc(OC2CC2)c2cc(N3CC4C(/C=C/c5c(-c6ccccc6C(F)(F)F)noc5C5CC5)C4C3)ccc2n1` (stereo not shown) [Example 184, (E)-4-Cyclopropoxy-6-(6-(2-(5-cyclopropyl-3-(2-(trifluoromethyl)phenyl)-isoxazol-4-yl)vinyl)-3-azabicyclo[3.1.0]hexan-3-yl)quinoline-2-carboxylic acid], the figure is 7.30; as for `COc1cc(C(=O)O)cc(-c2csc(N3CC4C(/C=C/c5c(-c6c(Cl)cncc6Cl)noc5C5CC5)C4C3)n2)c1` (stereo not shown) [Example 208, (E)-3-(2-(6-(2-(5-Cyclopropyl-3-(3,5-dichloropyridin-4-yl)isoxazol-4-yl)vinyl)-3-azabicyclo[3.1.0]hexan-3-yl)thiazol-4-yl)-5-methoxybenzoic acid], 6.61.
The same measure, in the same setting: as for `COc1cc(C(=O)O)cc(-c2nc(N3CC4C(/C=C/c5c(-c6c(Cl)cncc6Cl)noc5C5CC5)C4C3)ns2)c1` (stereo not shown) [Example 210, (E)-3-(3-(6-(2-(5-Cyclopropyl-3-(3,5-dichloropyridin-4-yl)isoxazol-4-yl)vinyl)-3-azabicyclo[3.1.0]hexan-3-yl)-1,2,4-thiadiazol-5-yl)-5-methoxybenzoic acid], the figure is 6.17; as for `COc1cc(C(=O)O)cc(-c2nsc(N3CC4C(/C=C/c5c(-c6c(Cl)cncc6Cl)noc5C5CC5)C4C3)n2)c1` (stereo not shown) [Example 214, (E)-3-(5-(6-(2-(5-Cyclopropyl-3-(3,5-dichloropyridin-4-yl)isoxazol-4-yl)vinyl)-3-azabicyclo[3.1.0]hexan-3-yl)-1,2,4-thiadiazol-3-yl)-5-methoxybenzoic acid], 6.97; as for `COc1cc(C(=O)O)cc(-c2cnc(N3CC4C(/C=C/c5c(-c6c(Cl)cncc6Cl)noc5C5CC5)C4C3)s2)c1` (stereo not shown) [Example 216, (E)-3-(2-(6-(2-(5-cyclopropyl-3-(3,5-dichloropyridin-4-yl)isoxazol-4-yl)vinyl)-3-azabicyclo[3.1.0]hexan-3-yl)thiazol-5-yl)-5-methoxybenzoic acid], 6.69.
